Numbered stars: 1 amine (or outer) side, 2 acyl side, 3 side chain; on linkers, the order of the positions; unused ones are H or OH. Peptide text beside a SMILES is read from it. * marks the point of attachment. C20 diacid = O=C(O)CCCCCCCCCCCCCCCCCCC(=O)*; C16 diacid = O=C(O)CCCCCCCCCCCCCCC(=O)*; γGlu = O=C(O)[C@H](CCC(=O)[*:2])N[*:1]
Assays:
[1] = system: Rattus norvegicus; experiment: Reduction in food intake in Sprague-Dawley rat at 3 nmol/kg measured 0 to 24 hrs post dose relative to control; assay type: functional; set-up: scale not given: the % may be the effect or the level left
[2] = system: Rattus norvegicus; experiment: Reduction in food intake in Sprague-Dawley rat at 3 nmol/kg measured 24 to 48 hrs post dose relative to control; assay type: functional; set-up: scale not given: the % may be the effect or the level left
[3] = target: T1, Amylin receptor AMY3; CALCR/RAMP3 (Homo sapiens, UniProt O60896+P30988); experiment: Agonist activity at human amylin receptor expressed in BHK570 cells co-expressing RAMP3 assessed as increase in intracellular cAMP concentration incubated for 3 hrs in absence of albumin by CRE luciferase reporter gene assay; assay type: functional, cell-based
T1 sequence (P30988 whole entry): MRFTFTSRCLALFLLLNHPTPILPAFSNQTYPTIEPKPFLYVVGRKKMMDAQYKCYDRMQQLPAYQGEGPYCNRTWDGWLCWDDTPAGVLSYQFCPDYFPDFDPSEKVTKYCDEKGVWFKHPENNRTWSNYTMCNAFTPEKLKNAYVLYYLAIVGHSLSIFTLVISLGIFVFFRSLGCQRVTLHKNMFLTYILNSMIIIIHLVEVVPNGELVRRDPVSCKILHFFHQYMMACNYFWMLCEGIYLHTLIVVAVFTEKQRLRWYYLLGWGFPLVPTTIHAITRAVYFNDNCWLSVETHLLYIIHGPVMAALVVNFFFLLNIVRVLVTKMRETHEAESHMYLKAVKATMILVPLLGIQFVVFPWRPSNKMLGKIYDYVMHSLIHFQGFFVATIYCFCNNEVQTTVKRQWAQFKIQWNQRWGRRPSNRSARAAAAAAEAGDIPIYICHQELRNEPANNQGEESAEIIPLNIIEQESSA
T1 sequence (O60896 whole entry): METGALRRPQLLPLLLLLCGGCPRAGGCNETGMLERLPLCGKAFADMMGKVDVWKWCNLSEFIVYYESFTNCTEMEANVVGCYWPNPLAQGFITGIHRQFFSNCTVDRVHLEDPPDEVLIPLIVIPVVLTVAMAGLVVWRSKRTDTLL

[4] = target: T2, Calcitonin receptor (Homo sapiens, UniProt P30988); experiment: Agonist activity at human calcitonin receptor expressed in BHK570 cells assessed as increase in intracellular cAMP concentration incubated for 3 hrs in absence of albumin by CRE luciferase reporter gene assay; assay type: functional, cell-based
T2 sequence (P30988 whole entry): T1 sequence (P30988 whole entry)

[5] = target: T1, Amylin receptor AMY3; CALCR/RAMP3; experiment: Agonist activity at human amylin receptor expressed in BHK570 cells co-expressing RAMP3 assessed as increase in intracellular cAMP concentration incubated for 3 hrs in presence of 10% FBS by CRE luciferase reporter gene assay; assay type: functional, cell-based
[6] = target: T2, Calcitonin receptor; experiment: Agonist activity at human calcitonin receptor expressed in BHK570 cells assessed as increase in intracellular cAMP concentration incubated for 3 hrs in presence of 10% FBS by CRE luciferase reporter gene assay; assay type: functional, cell-based
[7] = Stability in pH 7.5 buffer assessed as lag time for fibril formation at 1 uM by Thioflavin T based fluorescence assay; assay type: physicochemical; conditions: pH 7.5, 1 µM
[8] = Stability in pH 7.5 buffer assessed as compound recovery at 1 uM by Thioflavin T based fluorescence assay; assay type: physicochemical; conditions: read-out: Drug recovery
[9] = Solubility in 100 mM glycylglycine buffer at pH 3.0 incubated for 18 hrs by UPLC analysis; assay type: physicochemical
[10] = Solubility in 100 mM glycylglycine buffer at pH 4.0 incubated for 18 hrs by UPLC analysis; assay type: physicochemical
[11] = Solubility in 100 mM bistrispropane buffer at pH 6.0 incubated for 18 hrs by UPLC analysis; assay type: physicochemical
[12] = Solubility in 100 mM glycylglycine buffer at pH 5.0 incubated for 18 hrs by UPLC analysis; assay type: physicochemical
[13] = Solubility in 100 mM bistrispropane buffer at pH 6.5 incubated for 18 hrs by UPLC analysis; assay type: physicochemical
[14] = Solubility in 100 mM bistrispropane buffer at pH 7.0 incubated for 18 hrs by UPLC analysis; assay type: physicochemical
[15] = Solubility in 100 mM bistrispropane buffer at pH 7.5 incubated for 18 hrs by UPLC analysis; assay type: physicochemical
[16] = Solubility in 100 mM bistrispropane buffer at pH 8.0 incubated for 18 hrs by UPLC analysis; assay type: physicochemical
[17] = target: T1, Amylin receptor AMY3; CALCR/RAMP3; experiment: Displacement of [125I]-labeled rat amylin from human amylin receptor expressed in BHK570 cell membranes co-expressing RAMP3 incubated for 120 mins by scintillation proximity assay
[18] = target: T2, Calcitonin receptor; experiment: Displacement of [125I]-labeled human calcitonin from human calcitonin receptor expressed in BHK tkts13 cell membranes incubated for 1 hr by scintillation proximity assay
[19] = target: T3, Amylin receptor AMY3; CALCR/RAMP3 (Rattus norvegicus, UniProt P32214+Q9JJ73); experiment: Displacement of [125I]-labeled rat amylin from rat amylin receptor expressed in BHK tkts13 cell membranes co-expressing RAMP3 incubated for 120 mins by scintillation proximity assay
T3 sequence (P32214 whole entry): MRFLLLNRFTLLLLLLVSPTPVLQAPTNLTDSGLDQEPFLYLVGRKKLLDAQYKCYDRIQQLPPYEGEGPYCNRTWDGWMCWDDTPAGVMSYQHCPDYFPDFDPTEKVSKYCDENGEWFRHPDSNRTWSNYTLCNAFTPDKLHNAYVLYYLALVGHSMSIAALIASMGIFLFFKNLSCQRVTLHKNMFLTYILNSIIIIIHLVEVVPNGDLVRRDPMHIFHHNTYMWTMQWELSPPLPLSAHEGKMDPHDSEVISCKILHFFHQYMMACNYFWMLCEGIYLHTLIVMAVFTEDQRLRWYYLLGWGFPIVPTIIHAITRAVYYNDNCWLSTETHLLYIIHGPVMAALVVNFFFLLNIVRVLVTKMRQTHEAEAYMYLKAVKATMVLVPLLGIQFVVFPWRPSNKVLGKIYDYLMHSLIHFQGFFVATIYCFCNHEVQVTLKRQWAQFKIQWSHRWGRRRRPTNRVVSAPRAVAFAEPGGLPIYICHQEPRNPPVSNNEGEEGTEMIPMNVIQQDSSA
T3 sequence (Q9JJ73 whole entry): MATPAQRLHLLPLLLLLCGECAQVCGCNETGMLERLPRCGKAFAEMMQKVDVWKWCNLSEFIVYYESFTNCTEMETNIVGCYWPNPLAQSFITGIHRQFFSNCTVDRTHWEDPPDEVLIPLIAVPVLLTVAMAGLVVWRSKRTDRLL

CC(C)C[C@H](NC(=O)[C@H](C)NC(=O)[C@H](C)NC(=O)[C@@H](NC(=O)[C@H](CO)NC(=O)[C@H](CC(C)C)NC(=O)[C@H](CCC(=O)O)NC(=O)[C@H](CO)NC(=O)[C@H](C)NC(=O)CC[C@H](NC(=O)CCCCCCCCCCCCCCC(=O)O)C(=O)O)[C@@H](C)O)C(=O)NCC(=O)N[C@@H](CCCNC(=N)N)C(=O)N[C@@H](CC(C)C)C(=O)N[C@@H](CO)C(=O)N[C@@H](C)C(=O)N[C@@H](CCC(=O)O)C(=O)N[C@@H](CC(C)C)C(=O)N[C@@H](Cc1cnc[nH]1)C(=O)N[C@@H](CCC(=O)O)C(=O)N[C@@H](CC(C)C)C(=O)N[C@@H](C)C(=O)N[C@H](C(=O)N[C@@H](CC(C)C)C(=O)N1CCC[C@H]1C(=O)N[C@@H](CCCNC(=N)N)C(=O)N[C@H](C(=O)N[C@@H](CCC(=O)O)C(=O)N[C@H](C(=O)NCC(=O)N[C@@H](CO)C(=O)NCC(=O)N[C@@H](CO)C(=O)N1CCC[C@H]1C(N)=O)[C@@H](C)O)[C@@H](C)O)[C@@H](C)O ({C16 diacid-γGlu}-ASELSTAALGRLSAELHELATLPRTETGSGSP-NH2)
Activity [1]: 66% | Activity [2]: 10% | EC50 [3]: 0.018 nM | EC50 [4]: 0.015 nM | EC50 [5]: 0.004 nM | EC50 [6]: 0.002 nM | Time [7]: > 45 h | remaining at 1 µM [8]: 100% | solubility at 18 h [9]: ≥ 200 µM | solubility at 18 h [10]: ≥ 200 µM | solubility at 18 h [11]: ≥ 200 µM | solubility at 18 h [12]: ≥ 200 µM | solubility at 18 h [13]: ≥ 200 µM | solubility at 18 h [14]: ≥ 200 µM | solubility at 18 h [15]: ≥ 200 µM | solubility at 18 h [16]: ≥ 200 µM | IC50 [17]: 0.037 nM | IC50 [18]: 0.024 nM | IC50 [19]: 0.022 nM

CC(C)C[C@H](NC(=O)CNC(=O)[C@H](CO)NC(=O)[C@H](C)NC(=O)CC[C@H](NC(=O)CCCCCCCCCCCCCCCCCCC(=O)O)C(=O)O)C(=O)N[C@@H](CO)C(=O)N[C@H](C(=O)N[C@@H](C)C(=O)N[C@H](C(=O)N[C@@H](CC(C)C)C(=O)NCC(=O)N[C@@H](CCCNC(=N)N)C(=O)N[C@@H](CC(C)C)C(=O)N[C@@H](CO)C(=O)N[C@@H](CCC(N)=O)C(=O)N[C@@H](CCC(=O)O)C(=O)N[C@@H](CC(C)C)C(=O)N[C@@H](Cc1cnc[nH]1)C(=O)N[C@@H](CCC(=O)O)C(=O)N[C@@H](CC(C)C)C(=O)N[C@@H](CCC(N)=O)C(=O)N[C@H](C(=O)N[C@@H](Cc1ccc(O)cc1)C(=O)N1CCC[C@H]1C(=O)N[C@@H](CCCNC(=N)N)C(=O)N[C@H](C(=O)N[C@@H](CCC(=O)O)C(=O)N[C@H](C(=O)NCC(=O)N[C@@H](CO)C(=O)N[C@@H](CCC(N)=O)C(=O)N[C@H](C(=O)N[C@@H](Cc1ccc(O)cc1)C(N)=O)[C@@H](C)O)[C@@H](C)O)[C@@H](C)O)[C@@H](C)O)C(C)C)[C@@H](C)O ({C20 diacid-γGlu}-ASGLSTAVLGRLSQELHELQTYPRTETGSQTY-NH2)
Activity [1]: 25% | Activity [2]: 29% | EC50 [3]: 0.072 nM | EC50 [4]: 0.049 nM | EC50 [6]: 0.061 nM | Time [7]: 1.5 h | remaining at 1 µM [8]: 39.5% | solubility at 18 h [9]: ≥ 200 µM | solubility at 18 h [11]: ≥ 200 µM | solubility at 18 h [13]: ≥ 200 µM | solubility at 18 h [14]: ≥ 200 µM | solubility at 18 h [15]: ≥ 200 µM | solubility at 18 h [16]: ≥ 200 µM | IC50 [17]: 0.152 nM | IC50 [18]: 0.067 nM | IC50 [19]: 0.053 nM

From ChEMBL document CHEMBL4420076, “Amylin and calcitonin receptor agonist” (2017)
